In DBAASP:
In brackets after ≈: the same amount, converted by molar mass. Several values for one entry are separate records, joined by “and”; a condition that tells them apart may be missing. Equal values may be shown once. Each block holds one compound with its values, some of them ahead of it.

Key:
Assay in all cases: ≥ marks a high value that may be exact or a test limit, other limits are often not marked, values filed in µg/mL are converted to µM
Streptococcus sanguinis = test system: Streptococcus sanguinis
Staphylococcus aureus = test system: Staphylococcus aureus
Klebsiella pneumoniae = test system: Klebsiella pneumoniae
[1] = test system: Pseudomonas aeruginosa CUN 4158-02
Burkholderia cepacia = test system: Burkholderia cepacia
[2] = test system: Staphylococcus aureus CUN 3792-99
Enterococcus faecium = test system: Enterococcus faecium
Escherichia coli ESBL = test system: Escherichia coli ESBL
[3] = test system: Staphylococcus aureus ATCC 43300
[4] = test system: Escherichia coli ATCC 25922
Moraxella catarrhalis = test system: Moraxella catarrhalis
[5] = test system: Bordetella bronchiseptica CUN 11844-99
Streptococcus mutans = test system: Streptococcus mutans
Vibrio cholerae CUN 09 = test system: Vibrio cholerae CUN 09
[6] = test system: Salmonella enterica serovar Minnesota R60
[7] = test system: Pseudomonas aeruginosa ATCC 27853
[8] = test system: Staphylococcus aureus ATCC 25923
Candida albicans = test system: Candida albicans
Acinetobacter baumannii = test system: Acinetobacter baumannii
[9] = test system: Acinetobacter baumannii ATCC 19506
[10] = test system: Staphylococcus aureus ATCC 29213
[11] = test system: Enterococcus faecalis ATCC 29212
[12] = test system: Aspergillus brasiliensis ATCC 16404
[13] = test system: Candida albicans ATCC 10231
[14] = test system: Staphylococcus aureus ATCC 6538P
[15] = test system: Escherichia coli K-12 594
[16] = test system: Staphylococcus aureus SR1550
[17] = test system: Salmonella typhimurium TA100
[18] = test system: Micrococcus luteus DSM 20030
[19] = test system: Salmonella enterica subsp. enterica serovar Pullorum ATCC 7913
[20] = test system: Salmonella enterica subsp. enterica serovar Typhimurium ATCC 14028
[21] = test system: Candida tropicalis CGMCC 2.1975
Escherichia coli 1005 = test system: Escherichia coli 1005
[22] = test system: Staphylococcus epidermidis ATCC 12228
[23] = test system: Candida parapsilosis CGMCC 2.3989
[24] = test system: Candida krusei CGMCC 2.1857
[25] = test system: Escherichia coli ATCC 11775
[26] = test system: Micrococcus luteus ATCC 49732
[27] = test system: Staphylococcus aureus ATCC 12600
[28] = test system: Candida albicans ATCC 14053

- MIC (Klebsiella pneumoniae): > 47.2 µM
- MIC [1]: ≥ 47.2 µM
- MIC (Burkholderia cepacia): 11.8 µM (≈ 32 µg/mL)
- MIC [2]: ≥ 47.2 µM
- MIC (Enterococcus faecium): 11.8 µM (≈ 32 µg/mL)
- MIC (Escherichia coli ESBL): ≥ 47.2 µM and 23.6 µM
- MIC [3]: 11.8 µM (≈ 32 µg/mL)
- MIC [4]: 47.2 µM (≈ 128 µg/mL)
- MIC (Moraxella catarrhalis): 11.8 µM (≈ 32 µg/mL)
- MIC [5]: 11.8 µM (≈ 32 µg/mL)
- MIC (Streptococcus mutans): 11.8 µM (≈ 32 µg/mL)
- MIC [6]: 11.8 µM (≈ 32 µg/mL)
- MIC [7]: 94.4 µM (≈ 256 µg/mL)
- MIC [8]: 11.8 µM (≈ 32 µg/mL)
- MIC (Candida albicans): 94.4 µM (≈ 256 µg/mL)
- MIC (Acinetobacter baumannii): ≥ 47.2 µM
- MIC [9]: ≥ 47.2 µM
SMILES: NCCCC[C@H](NC(=O)CNC(=O)[C@H](CCCCN)NC(=O)[C@H](Cc1ccccc1)NC(=O)[C@H](CCCCN)NC(=O)[C@H](Cc1c[nH]c2ccccc12)NC(=O)[C@H](CCCN=C(N)N)NC(=O)[C@H](Cc1ccccc1)NC(=O)[C@H](CCCN=C(N)N)NC(=O)[C@H](CCCN=C(N)N)NC(=O)[C@H](Cc1ccc(O)cc1)NC(=O)[C@H](CCCCN)NC(=O)[C@H](CCCCN)NC(=O)[C@H](CS)NC(=O)CN)C(=O)N[C@@H](Cc1ccccc1)C(=O)N[C@@H](Cc1c[nH]c2ccccc12)C(=O)N[C@@H](Cc1ccccc1)C(=O)N[C@@H](Cc1c[nH]c2ccccc12)C(=O)NCC(N)=O [GCKKYRRFRWKFKGKFWFWG]
- MIC (Vibrio cholerae CUN 09): ≥ 94.4 µM

- MIC [10]: > 64 µM
- MIC [11]: > 64 µM
- MIC [12]: ≥ 64 µM
- MIC [4]: > 64 µM
- MIC [13]: > 64 µM
- MIC [7]: > 64 µM
SMILES: CC[C@H](C)[C@H](NC(=O)[C@H](CCCCN)NC(=O)CNC(=O)[C@@H]1CCCN1C(=O)[C@H](Cc1cnc[nH]1)NC(=O)[C@H](CC(C)C)NC(=O)[C@H](CC(C)C)NC(=O)[C@H](Cc1ccc(O)cc1)NC(=O)[C@H](CS)NC(=O)CN)C(=O)N[C@@H](CS)C(=O)N[C@@H](Cc1ccc(O)cc1)C(=O)O [GCYLLHPGKICY]

- MIC [17]: 12.6 µM (≈ 38.3 µg/mL)
- MIC [18]: 13.5 µM (≈ 40.8 µg/mL)
SMILES: CC(C)C[C@H](NC(=O)CNC(=O)[C@H](CCCCN)NC(=O)[C@H](CS)NC(=O)[C@@H](NC(=O)[C@H](CCCN=C(N)N)NC(=O)[C@H](CCCCN)NC(=O)[C@H](CC(N)=O)NC(=O)[C@H](CC(N)=O)NC(=O)[C@H](CCC(N)=O)NC(=O)[C@H](CCCN=C(N)N)NC(=O)[C@@H](NC(=O)[C@H](CS)NC(=O)[C@@H](N)CCCCN)C(C)C)C(C)C)C(=O)N[C@@H](CCCN=C(N)N)C(=O)N[C@@H](CCCCN)C(=O)N[C@@H](CCCN=C(N)N)C(=O)N[C@@H](CC(C)C)C(=O)N[C@@H](CCCN=C(N)N)C(=O)N[C@@H](CCCCN)C(=O)N[C@@H](Cc1ccccc1)C(=O)N[C@@H](CCCN=C(N)N)C(=O)N[C@@H](CC(N)=O)C(=O)N[C@@H](CCCCN)C(N)=O [KCVRQNNKRVCKGLRKRLRKFRNK]

- MIC [19]: 2 µM (≈ 3.04 µg/mL)
- MIC [20]: 4 µM (≈ 6.08 µg/mL)
- MIC [21]: 2 µM (≈ 3.04 µg/mL)
- MIC [10]: 16 µM (≈ 24.3 µg/mL)
- MIC (Escherichia coli 1005): 4 µM (≈ 6.08 µg/mL)
- MIC [3]: 8 µM (≈ 12.2 µg/mL)
- MIC [22]: 4 µM (≈ 6.08 µg/mL)
- MIC [8]: 4 µM (≈ 6.08 µg/mL)
- MIC [23]: ≥ 64 µM
- MIC (Candida albicans): 4 µM (≈ 6.08 µg/mL)
- MIC [24]: 4 µM (≈ 6.08 µg/mL)
SMILES: CC(C)C[C@H](NC(=O)[C@H](CCCN=C(N)N)NC(=O)[C@H](CC(C)C)NC(=O)[C@H](CC(C)C)NC(=O)[C@H](CC(C)C)NC(=O)[C@H](CCCN=C(N)N)NC(=O)[C@H](CC(C)C)NC(=O)[C@H](CCCN=C(N)N)NC(=O)[C@@H](N)CCCN=C(N)N)C(=O)N[C@@H](CCCN=C(N)N)C(=O)N[C@@H](CCCN=C(N)N)C(N)=O [RRLRLLLRLRR]

Further lines, the compound ahead of its results:

SMILES: NC(=O)[C@H](Cc1ccccc1)NC(=O)[C@H](Cc1ccccc1)NC(=O)[C@H](Cc1ccccc1)NC(=O)[C@@H](N)Cc1ccccc1 [FFFF]
- MIC (Streptococcus sanguinis): ≥ 291 µM
- MIC (Staphylococcus aureus): 583 µM (≈ 353 µg/mL)

SMILES: CC(C)C[C@H](NC(=O)[C@H](Cc1cnc[nH]1)NC(=O)[C@H](CC(C)C)NC(=O)[C@H](CC(C)C)NC(=O)[C@H](CC(C)C)NC(=O)[C@H](CC(C)C)NC(=O)[C@H](CC(C)C)NC(=O)[C@H](Cc1cnc[nH]1)NC(=O)[C@H](CC(C)C)NC(=O)[C@@H](N)Cc1cnc[nH]1)C(=O)N[C@@H](Cc1cnc[nH]1)C(N)=O [HLHLLLLLHLH]
- MIC [14]: 11.8 µM (≈ 16 µg/mL)
- MIC [15]: 25.8 µM (≈ 35 µg/mL)
- MIC [16]: 25.8 µM (≈ 35 µg/mL)

SMILES: CSCC[C@H](NC(=O)[C@@H](NC(=O)[C@@H](N)[C@@H](C)O)[C@@H](C)O)C(=O)N1CCC[C@H]1C(=O)N[C@@H](CC(C)C)C(=O)N[C@@H](Cc1c[nH]c2ccccc12)C(=O)O [TTMPLW]
- MIC [25]: ≥ 193 µM
- MIC [26]: ≥ 64 µM
- MIC [27]: ≥ 193 µM
- MIC [28]: ≥ 144 µM
